Laboratory results published in patent publication US20240398762A1, “PHARMACEUTICAL COMPOSITION WITH ANALGESIC AND/OR ANTIPRURITIC FUNCTIONS AND APPLICATION THEREOF” (PENGEKIPHEN BIOTECH LIMITED COMPANY, priority 2022, published 2024).
Where a name gives a salt, the structure may show the parent alone.

Tests used:
miR-96−/− mice = test: Mechanical pain threshold (Von Frey paw withdrawal threshold) of hind paws after intragastric administration; assay type: in vivo, mouse; details: 1 h after administration; for dose group exhibiting the best analgesic effect: three doses tested
Procedure: In order to screen an analgesic drug with excellent oral efficacy, analgesic effects of intragastric administration of Nav1.7 inhibitor and Nav1.8 inhibitor in eight 3-6-month-old miR-96^−/− mice ([…] BIOTECH LIMITED COMPANY) were tested.
Firstly, mechanical pain thresholds of hind paws of the miR-96^−/− mice were measured. The eight miR-96^−/− mice were placed on an iron frame and covered with a plexiglass cover. After 30 min, paw withdrawal thresholds (PWT) of the mice were measured using Von Frey (DanMic Global, CA, USA). […] 1 h after the intragastric administration of 30 μg/kg, 60 μg/kg or 90 μg/kg of PF-06305591, the mechanical pain thresholds of the hind paws of the miR-96″ mice were measured.

[1] = tested on: subjects with painful diabetic peripheral neuropathy; details: McDonnell et al., Pain 2018; cited from earlier work

NC(=O)[C@@H]1CC[C@H](c2ccc(OCc3ccccc3F)cc2)N1 [CNV1014802]
analgesic effect versus solvent control group (miR-96−/− mice; 20 mg/kg intragastric): significant analgesic effects | analgesic effect versus solvent control group (miR-96−/− mice; 30 mg/kg intragastric): significant analgesic effects | analgesic effect versus solvent control group (miR-96−/− mice; 40 mg/kg intragastric): significant analgesic effects | dose group exhibiting the best analgesic effect (miR-96−/− mice; intragastric): 30 mg/kg

NCC1(CC(=O)O)CCCCC1 [Gabapentin]
effect on mechanical pain thresholds (miR-96−/− mice; 50 mg/kg intragastric): significantly improve the mechanical pain thresholds

CC(C)(N)c1ncc(-c2ccc(OC(F)(F)F)cc2)[nH]1 [PF-04885614, 1-methyl-1-[4-(4-trifluoromethoxy-phenyl)-1H-imidazol-2-yl]-ethylamine]
analgesic effect versus solvent control group (miR-96−/− mice; 180 μg/kg intragastric): significantly better than that of the solvent control group | analgesic effect versus solvent control group (miR-96−/− mice; 270 μg/kg intragastric): significantly better than that of the solvent control group | dose group exhibiting the best analgesic effect (miR-96−/− mice; intragastric): 0.18 mg/kg

Nc1n[nH]cc1-c1cc(Cl)ccc1Oc1cc(F)c(S(=O)(=O)Nc2cscn2)cc1Cl [PF-05089771, 4-[2-(3-amino-1H-pyrazol-4-yl)-4-chlorophenoxy]-5-chloro-2-fluoro-N-4-thiazolylbenzenesulfonamide tosylate]
analgesic effect versus solvent control group (miR-96−/− mice; 4 mg/kg intragastric): significantly better than that of the solvent control group | analgesic effect versus solvent control group (miR-96−/− mice; 6 mg/kg intragastric): significantly better than that of the solvent control group | efficacy of the 6 mg/kg-dose group compared with the 4 mg/kg-dose group (miR-96−/− mice; intragastric): not better than that of the 4 mg/kg-dose group | analgesic effect in clinical studies [1]: does not exhibit desired analgesic effect

C[C@@H](C(N)=O)[C@H](N)c1nc2cc(C(C)(C)C)ccc2[nH]1 [PF-06305591, (αR, βS)-β-Amino-6-(1,1-dimethylethyl)-α-methyl-1H-benzimidazole-2-propanamide dihydrate]
analgesic effect versus solvent control group (miR-96−/− mice; 60 μg/kg intragastric): significantly better than that of the solvent control group | analgesic effect versus solvent control group (miR-96−/− mice; 90 μg/kg intragastric): significantly better than that of the solvent control group | dose group exhibiting the best analgesic effect (miR-96−/− mice; intragastric): 0.06 mg/kg

N#Cc1cc(S(=O)(=O)Nc2ncns2)ccc1Oc1ccc(-c2cccc(C(F)(F)F)c2)cc1-c1ccnc(CNCCC2CCNCC2)c1 [PF-06456384, 3-cyano-4-[[3-[2-[[[2-(4-piperidinyl)ethyl]amino]methyl]-4-pyridinyl]-3′-(trifluoromethyl)[1,1′-biphenyl]-4-yl]oxy]-N-1,2,4-thiadiazol-5-yl-benzenesulfonamide trihydrochloride]
analgesic effect versus solvent control group (miR-96−/− mice; 1 mg/kg intragastric): significant analgesic effects | analgesic effect versus solvent control group (miR-96−/− mice; 2 mg/kg intragastric): significant analgesic effects | analgesic effect versus solvent control group (miR-96−/− mice; 3 mg/kg intragastric): significant analgesic effects | dose group exhibiting the best analgesic effect (miR-96−/− mice; intragastric): 2 mg/kg
